According to ChEMBL document CHEMBL3885881, “DrugMatrix”:

Species: Rattus norvegicus
Assay: DrugMatrix - Regimen: Daily Repeat
Assay type: toxicity, organism-based, Sprague-Dawley
Design: regimen Daily Repeat, gender Male, age 6-8 weeks
Settings: in vivo, sc, route subcutaneous, […]; for ABSOLUTE BASOPHIL / ABSOLUTE EOSINOPHIL / ABSOLUTE LYMPHOCYTE / ABSOLUTE MONOCYTE / ABSOLUTE SEGMENTED NEUTROPHIL / BASOPHIL / EOSINOPHIL / ERYTHROCYTE COUNT / HEMATOCRIT / HEMOGLOBIN / LEUKOCYTE COUNT / LYMPHOCYTE / MEAN CORPUSCULAR HEMOGLOBIN / MEAN CORPUSCULAR HEMOGLOBIN CONCENTRATION / MEAN CORPUSCULAR VOLUME / MONOCYTE / NEUTROPHIL / NUCLEATED RED BLOOD CELLS / PLATELET COUNT: tissue Blood; for ALANINE AMINOTRANSFERASE / ALBUMIN / ALKALINE PHOSPHATASE / ASPARTATE AMINOTRANSFERASE / BLOOD UREA NITROGEN / CARBON DIOXIDE / CHLORIDE / CHOLESTEROL / CREATINE PHOSPHOKINASE / CREATININE / GLUCOSE / LACTATE DEHYDROGENASE / LIPASE / PHOSPHORUS / POTASSIUM / SODIUM / TOTAL BILIRUBIN / TOTAL PROTEIN / URIC ACID: tissue Plasma
[1] = 14 mg/kg, 120 h, dose level Low, time 5 day
[2] = 140 mg/kg, 72 h, dose level High, time 3 day
[3] = 140 mg/kg, 120 h, dose level High, time 5 day

## CCN(CC)CCOCCC1=CCC2CC1C2(C)C (centres undefined) [MYRTECAINE]
[1]
  ABSOLUTE BASOPHIL: 0 CELLS/uL
  ABSOLUTE EOSINOPHIL: 435.67 CELLS/uL
  ABSOLUTE LYMPHOCYTE: 16182.67 CELLS/uL
  ABSOLUTE MONOCYTE: 0 CELLS/uL
  ABSOLUTE SEGMENTED NEUTROPHIL: 2215 CELLS/uL
  BASOPHIL: 0%
  EOSINOPHIL: 2.33%
  ERYTHROCYTE COUNT: 6.14 x10E6/uL
  HEMATOCRIT: 39.17%
  HEMOGLOBIN: 15.53 G/DL
  LEUKOCYTE COUNT: 18.83 x10E3/uL
  LYMPHOCYTE: 86%
  MEAN CORPUSCULAR HEMOGLOBIN: 25.33 pg
  MEAN CORPUSCULAR HEMOGLOBIN CONCENTRATION: 39.7 G/DL
  MEAN CORPUSCULAR VOLUME: 63.8 fL
  MONOCYTE: 0%
  NEUTROPHIL: 11.67%
  NUCLEATED RED BLOOD CELLS: 0 /100WBC
  PLATELET COUNT: 1530.33 x10E3/uL
  ALANINE AMINOTRANSFERASE: 58 u/L
  ALBUMIN: 4.53 G/DL
  ALKALINE PHOSPHATASE: 470.67 u/L
  ASPARTATE AMINOTRANSFERASE: 83.67 u/L
  BLOOD UREA NITROGEN: 17.67 mg/dL
  CARBON DIOXIDE: 31.67 mmol/L
  CHLORIDE: 104 MEQ/L
  CHOLESTEROL: 76.67 mg/dL
  CREATINE PHOSPHOKINASE: 162.33 u/L
  CREATININE: 0.26 mg/dL
  GLUCOSE: 157.67 mg/dL
  LACTATE DEHYDROGENASE: 142 u/L
  LIPASE: 9.67 u/L
  PHOSPHORUS: 14.37 mg/dL
  POTASSIUM: 7.28 MEQ/L
  SODIUM: 151.27 MEQ/L
  TOTAL BILIRUBIN: 0.3 mg/dL
  TOTAL PROTEIN: 6.67 G/DL
  URIC ACID: 2.23 mg/dL
[2]
  ABSOLUTE BASOPHIL: 0 CELLS/uL
  ABSOLUTE EOSINOPHIL: 42 CELLS/uL
  ABSOLUTE LYMPHOCYTE: 11279.33 CELLS/uL
  ABSOLUTE MONOCYTE: 191.33 CELLS/uL
  ABSOLUTE SEGMENTED NEUTROPHIL: 620.67 CELLS/uL
  BASOPHIL: 0%
  EOSINOPHIL: 0.33%
  ERYTHROCYTE COUNT: 5.34 x10E6/uL
  HEMATOCRIT: 33.37%
  HEMOGLOBIN: 13.6 G/DL
  LEUKOCYTE COUNT: 12.13 x10E3/uL
  LYMPHOCYTE: 93%
  MEAN CORPUSCULAR HEMOGLOBIN: 25.53 pg
  MEAN CORPUSCULAR HEMOGLOBIN CONCENTRATION: 40.77 G/DL
  MEAN CORPUSCULAR VOLUME: 62.57 fL
  MONOCYTE: 1.67%
  NEUTROPHIL: 5%
  NUCLEATED RED BLOOD CELLS: 0 /100WBC
  PLATELET COUNT: 1370.67 x10E3/uL
  ALANINE AMINOTRANSFERASE: 61.67 u/L
  ALBUMIN: 3.67 G/DL
  ALKALINE PHOSPHATASE: 346 u/L
  ASPARTATE AMINOTRANSFERASE: 92 u/L
  BLOOD UREA NITROGEN: 13.33 mg/dL
  CARBON DIOXIDE: 30.33 mmol/L
  CHLORIDE: 100.33 MEQ/L
  CHOLESTEROL: 67 mg/dL
  CREATINE PHOSPHOKINASE: 447 u/L
  CREATININE: 0.17 mg/dL
  GLUCOSE: 155.33 mg/dL
  LACTATE DEHYDROGENASE: 247.33 u/L
  LIPASE: 8 u/L
  PHOSPHORUS: 13.73 mg/dL
  POTASSIUM: 7.09 MEQ/L
  SODIUM: 144.03 MEQ/L
  TOTAL BILIRUBIN: 0.2 mg/dL
  TOTAL PROTEIN: 5.6 G/DL
  URIC ACID: 2.03 mg/dL
[3]
  ABSOLUTE BASOPHIL: 0 CELLS/uL
  ABSOLUTE EOSINOPHIL: 174.67 CELLS/uL
  ABSOLUTE LYMPHOCYTE: 14614 CELLS/uL
  ABSOLUTE MONOCYTE: 386 CELLS/uL
  ABSOLUTE SEGMENTED NEUTROPHIL: 2992 CELLS/uL
  BASOPHIL: 0%
  EOSINOPHIL: 1%
  ERYTHROCYTE COUNT: 6.17 x10E6/uL
  HEMATOCRIT: 37.83%
  HEMOGLOBIN: 14.87 G/DL
  LEUKOCYTE COUNT: 18.17 x10E3/uL
  LYMPHOCYTE: 81.33%
  MEAN CORPUSCULAR HEMOGLOBIN: 24.07 pg
  MEAN CORPUSCULAR HEMOGLOBIN CONCENTRATION: 39.33 G/DL
  MEAN CORPUSCULAR VOLUME: 61.3 fL
  MONOCYTE: 2.33%
  NEUTROPHIL: 15.33%
  NUCLEATED RED BLOOD CELLS: 0 /100WBC
  PLATELET COUNT: 1631 x10E3/uL
  ALANINE AMINOTRANSFERASE: 84.67 u/L
  ALBUMIN: 3.97 G/DL
  ALKALINE PHOSPHATASE: 328 u/L
  ASPARTATE AMINOTRANSFERASE: 111.67 u/L
  BLOOD UREA NITROGEN: 16 mg/dL
  CARBON DIOXIDE: 26.33 mmol/L
  CHLORIDE: 104 MEQ/L
  CHOLESTEROL: 74.67 mg/dL
  CREATINE PHOSPHOKINASE: 356 u/L
  CREATININE: 0.2 mg/dL
  GLUCOSE: 164.67 mg/dL
  LACTATE DEHYDROGENASE: 370 u/L
  LIPASE: 12 u/L
  PHOSPHORUS: 13.97 mg/dL
  POTASSIUM: 6.94 MEQ/L
  SODIUM: 146.77 MEQ/L
  TOTAL BILIRUBIN: 0.17 mg/dL
  TOTAL PROTEIN: 5.97 G/DL
  URIC ACID: 2.6 mg/dL
